According to patent publication US20120122727A1, “IN VITRO METHOD FOR PREDICTING WHETHER A COMPOUND IS GENOTOXIC IN VIVO” (priority 2009, published 2012):

Key:
[1] = in vivo; cited from earlier work
[2] = system: primary mouse hepatocytes; assay: Gene expression (Affymetrix Mouse Genome 430 2.0) in primary mouse hepatocytes, true vs false GTX, 24 h and 48 h
[3] = system: primary mouse hepatocytes

Cl.ClCc1ccccn1 [2-CP, 2-(Chloromethyl)pyridine.HCl]
GTX in vivo [1]: − | Gene expression AA561726 average [2]: −0.4297 | Gene expression AF000969 average [2]: 0.2944 | Gene expression AF022072 average [2]: 0.04067 | Gene expression AF033112 average [2]: −0.6651 | Gene expression AF055573 average [2]: 0.3686 | Gene expression AF069954 average [2]: 0.199 | Gene expression AF297615 average [2]: −0.5906 | Gene expression AF335325 average [2]: −0.05667 | Gene expression AI594683 average [2]: −0.2197 | Gene expression AI747296 average [2]: −0.2637 | Gene expression AK005731 average [2]: −0.6019 | Gene expression AK007854 average [2]: 0.5513 | Gene expression AK010447 average [2]: −0.05023 | Gene expression AK010738 average [2]: 0.0059 | Gene expression AK014608 average [2]: −0.01263 | Gene expression AK017734 average [2]: 0.1489 | Gene expression AK018383 average [2]: −0.2158 | Gene expression AK019979 average [2]: −0.4249 | Gene expression AV095209 average [2]: −0.03467 | Gene expression AV141095 average [2]: −0.4102 | Gene expression AV173869 average [2]: 0.3109 | Gene expression AV216768 average [2]: −0.4179 | Gene expression AV219418 average [2]: 0.8281 | Gene expression AV221299 average [2]: 0.4545 | Gene expression AV246296 average [2]: −0.3558 | Gene expression AV251625 average [2]: 0.06723 | Gene expression AV254764 average [2]: 0.396 | Gene expression AV327248 average [2]: −0.2215 | Gene expression BB009155 average [2]: −0.348 | Gene expression BB027848 average [2]: 0.2054 | Gene expression BB043558 average [2]: −0.2293 | Gene expression BB046347 average [2]: 0.187 | Gene expression BB140436 average [2]: 0.2823 | Gene expression BB204486 average [2]: −0.3875 | Gene expression BB223872 average [2]: 0.1743 | Gene expression BB246912 average [2]: 0.5739 | Gene expression BB275142 average [2]: 0.091 | Gene expression BB458460 average [2]: −0.1792 | Gene expression BB463610 average [2]: 0.0113 | Gene expression BB730977 average [2]: −0.7313 | Gene expression BB743970 average [2]: −0.1686 | Gene expression BB770528 average [2]: −0.4836 | Gene expression BB781615 average [2]: 0.007033 | Gene expression BC003284 average [2]: −0.2395 | Gene expression BC004827 average [2]: −0.2477 | Gene expression BC005552 average [2]: 0.1255 | Gene expression BC006713 average [2]: 0.2405 | Gene expression BC010318 average [2]: 0.1986 | Gene expression BC012247 average [2]: 0.5221 | Gene expression BC012955 average [2]: 0.2863 | Gene expression BC013893 average [2]: 0.4871 | Gene expression BC017615 average [2]: −0.3193 | Gene expression BC019379 average [2]: −0.1926 | Gene expression BC019882 average [2]: 0.8148 | Gene expression BC021352 average [2]: −0.7192 | Gene expression BC022148 average [2]: 0.1919 | Gene expression BC025169 average [2]: 0.9283 | Gene expression BC026131 average [2]: 0.4079 | Gene expression BC027026 average [2]: −0.2177 | Gene expression BC027121 average [2]: −0.6553 | Gene expression BC027185 average [2]: 0.06273 | Gene expression BE956581 average [2]: 0.0444 | Gene expression BF719766 average [2]: −0.1259 | Gene expression BG065754 average [2]: −0.2817 | Gene expression BG066491 average [2]: −0.3489 | Gene expression BG076151 average [2]: −0.0769 | Gene expression BG076333 average [2]: 0.4759 | Gene expression BG797099 average [2]: 0.004233 | Gene expression BG967046 average [2]: −0.1557 | Gene expression BI651416 average [2]: −0.08753 | Gene expression BI966443 average [2]: −0.01713 | Gene expression BM198879 average [2]: −0.1026 | Gene expression BM200015 average [2]: −0.3607 | Gene expression BM230508 average [2]: −0.2554 | Gene expression BM936480 average [2]: −0.07417 | Gene expression BQ174991 average [2]: 0.1864 | Gene expression L21027 average [2]: −0.5404 | Gene expression NM_007556 average [2]: 0.1685 | Gene expression NM_007980 average [2]: −0.2848 | Gene expression NM_007987 average [2]: −0.3447 | Gene expression NM_008522 average [2]: 0.0213 | Gene expression NM_008935 average [2]: −0.2124 | Gene expression NM_009897 average [2]: −0.06103 | Gene expression NM_011075 average [2]: −0.5782 | Gene expression NM_011176 average [2]: −0.0046 | Gene expression NM_011316 average [2]: 0.5829 | Gene expression NM_012006 average [2]: −0.1277 | Gene expression NM_013642 average [2]: 0.3967 | Gene expression NM_013738 average [2]: −0.373 | Gene expression NM_013929 average [2]: −0.5291 | Gene expression NM_018881 average [2]: −0.0599 | Gene expression NM_019738 average [2]: −0.5143 | Gene expression NM_030697 average [2]: −0.0882 | Gene expression NM_053122 average [2]: 0.1396 | Gene expression NM_134147 average [2]: 0.6449 | Gene expression NM_134188 average [2]: −0.1373 | Gene expression X62701 average [2]: −0.146 | Gene expression data AF000969 (Cadps2) [2]: −0.1003 | Gene expression data AF022072 (Grb10) [2]: 0.621 | Gene expression data AF065917 (Lif) [2]: 0.01213 | Gene expression data AF297615 (Ggta1) [2]: 0.06963 | Gene expression data AI594683 (Dmn) [2]: −0.3157 | Gene expression data AI596632 (Ptprg /// LOC632664) [2]: 0.2251 | Gene expression data AI987929 (Ndrg1) [2]: −0.1004 | Gene expression data AK004419 (Fbxl17) [2]: −0.1203 | Gene expression data AK005731 (1700007K13Rik) [2]: 0.1965 | Gene expression data AK007766 (1810044A24Rik) [2]: −0.1235 | Gene expression data AK007854 (1810053B23Rik) [2]: −0.4492 | Gene expression data AK009736 (Gpr137b /// LOC664862 /// LOC673335) [2]: 0.9644 | Gene expression data AK010447 (Smyd3) [2]: 0.06097 | Gene expression data AK014608 (4632434l11Rik) [2]: 0.5726 | Gene expression data AK019979 (2610528E23Rik) [2]: 0.3731 | Gene expression data AV095209 (Mthfd1l) [2]: 0.5754 | Gene expression data AV141095 (1110033M05Rik) [2]: 0.1817 | Gene expression data AV173571 (1700106N22Rik) [2]: −0.01367 | Gene expression data AV219418 (Ldhb) [2]: −0.7968 | Gene expression data AV223474 (Zdhhc14) [2]: −0.4094 | Gene expression data AV298304 (Homez) [2]: 0.1881 | Gene expression data AV327248 (Zfp365 /// LOC674611) [2]: 0.1477 | Gene expression data AV377066 (9130221J18Rik) [2]: −0.6354 | Gene expression data AW240761 (Tbc1d5) [2]: 0.02803 | Gene expression data AW543460 (Pard3) [2]: 0.2263 | Gene expression data AW543723 [2]: 0.1487 | Gene expression data AW986246 (Maoa) [2]: 1.21 | Gene expression data BB027848 (4732466D17Rik) [2]: −0.5716 | Gene expression data BB043558 (9230114K14Rik) [2]: 0.4946 | Gene expression data BB275142 (AW456874) [2]: −0.1954 | Gene expression data BB308836 (Ppm1l) [2]: −0.3692 | Gene expression data BB318221 (Zdhhc14) [2]: −0.2464 | Gene expression data BB463610 (4632434l11Rik) [2]: 0.3848 | Gene expression data BB526605 (Mipol1) [2]: −0.2134 | Gene expression data BB770528 (Rai2) [2]: −0.3271 | Gene expression data BB821363 (Scfd2) [2]: −0.1883 | Gene expression data BC004827 (Psat1) [2]: 0.3654 | Gene expression data BC008626 (Icam1) [2]: −0.242 | Gene expression data BC010462 (BC010462) [2]: −0.5895 | Gene expression data BC012247 (Dcxr) [2]: −0.3261 | Gene expression data BC012260 (Psmf1) [2]: −0.824 | Gene expression data BC015270 (Hist2h3c2) [2]: −0.231 | Gene expression data BC016073 (Cdkal1) [2]: 0.03017 | Gene expression data BC016265 (Ube2e2) [2]: 0.0177 | Gene expression data BC019882 (Acaa1b) [2]: −0.0399 | Gene expression data BC025501 (Aaas) [2]: 0.0663 | Gene expression data BC025837 (Sbk1) [2]: −0.5042 | Gene expression data BC025915 (Cova1) [2]: 0.05827 | Gene expression data BC026422 (Tgm1) [2]: −0.3825 | Gene expression data BF719766 (Thyn1) [2]: 0.0395 | Gene expression data BG065754 (Ccng1) [2]: 0.3287 | Gene expression data BG066903 (Kif16b) [2]: 0.3368 | Gene expression data BG069873 (Gnb1l) [2]: −0.1027 | Gene expression data BG070887 (Gtdc1) [2]: −0.06773 | Gene expression data BG076151 (Ppm1d) [2]: 0.1213 | Gene expression data BG261907 (Large) [2]: −0.1177 | Gene expression data BI651416 (Cdc42bpg) [2]: 0.05237 | Gene expression data BI660702 (Ell3) [2]: 0.08167 | Gene expression data BM198879 (Ercc5) [2]: 0.2935 | Gene expression data BM230508 (A030007D23Rik) [2]: 0.3615 | Gene expression data NM_007987 (Fas) [2]: 0.2313 | Gene expression data NM_008522 (Ltf) [2]: −0.3581 | Gene expression data NM_008576 (Abcc1) [2]: 1.199 | Gene expression data NM_011176 (St14) [2]: −0.05393 | Gene expression data NM_011316 (Saa4) [2]: −0.04463 | Gene expression data NM_012006 (Acot1) [2]: 0.6012 | Gene expression data NM_013866 (Zfp385) [2]: −0.1346 | Gene expression data NM_018770 (Igsf4a) [2]: 0.14 | Gene expression data NM_021451 (Pmaip1) [2]: 0.02357 | Gene expression data NM_025770 (Atg10) [2]: 0.3445 | Gene expression data NM_028803 (Gbe1) [2]: 0.5242 | Gene expression data NM_030697 (Ankrd47) [2]: −0.5785 | Gene expression data NM_053168 (Trim11) [2]: −0.06783 | Gene expression data NM_134188 (Acot2) [2]: 0.501 | Gene expression data Y15910 (Diap2) [2]: 0.06693 | Gene expression data AF204959 (Cyp3a25 /// LOC622249) [3]: −0.5019
